As usually defined, the Hill coefficient is a measure of the steepness of the concentration-response curve.

“Also recorded” adds a separate entry of the source. Counter-ions that a name gives are not always drawn.

One assay deals with wild-type mice. Kind of assay: spontaneous activity in the open field, wild-type mice. The class given is in vivo, mouse. The conditions noted are these: 2 mg/kg SC, relative to vehicle controls. As to the method:
Male and female wild-type and homozygous mutant dopamine transporter KO mice (n−10 mice/genotype/agent) were tested for spontaneous activity in the open field following a single injection of the vehicle or compound. Mice were placed into the open field for 30 min and administered SC the vehicle (sterile water) 2 mg/kg amphetamine, or three concentrations of the test compound (10, 30, 100 mg/kg). All drugs, were given in a volume of 5 mL/kg. Animals were returned to the open field for an additional 90 min. Spontaneous activity was evaluated in an automated Omnitech Digiscan apparatus (Accuscan Instruments, Columbus, Ohio). Activity was summated at 5 min intervals over the 2 h period of testing. Horizontal activity or locomotion was Measured in terms of toe total distance covered in cm, vertical activity or rearing was expressed in terms of the total numbers of vertical beam breaks, and stereotypy was quantified in terms of repetitive breaks of a given beam or beams with intervals of less than 1 sec. For the analyses, 10 WT and 10 KO mice were run in each of the treatment groups with approximately equal numbers of males and females assigned to each group. Data were analyzed by the Statistical Package for Social Sciences programs (version 11.0 for Windows; SPSS Science, Chicago, Ill.). The results lot each dependent variable were analyzed by repeated analyses of variance. […]

Assay [1] has as its system homozygous mutant dopamine transporter KO mice. Put plainly: spontaneous activity in the open field, dopamine transporter KO mice. The class given is in vivo, mouse. As for the experimental part:
Male and female wild-type and homozygous mutant dopamine transporter KO mice (n−10 mice/genotype/agent) were tested for spontaneous activity in the open field following a single injection of the vehicle or compound. […] All drugs, were given in a volume of 5 mL/kg. Animals were returned to the open field for an additional 90 min. Spontaneous activity was evaluated in an automated Omnitech Digiscan apparatus (Accuscan Instruments, Columbus, Ohio). Activity was summated at 5 min intervals over the 2 h period of testing. Horizontal activity or locomotion was Measured in terms of toe total distance covered in cm, vertical activity or rearing was expressed in terms of the total numbers of vertical beam breaks, and stereotypy was quantified in terms of repetitive breaks of a given beam or beams with intervals of less than 1 sec. For the analyses, 10 WT and 10 KO mice were run in each of the treatment groups with approximately equal numbers of males and females assigned to each group. Data were analyzed by the Statistical Package for Social Sciences programs (version 11.0 for Windows; SPSS Science, Chicago, Ill.). The results lot each dependent variable were analyzed by repeated analyses of variance. (RMANOVA) for within subjects effects (group differences over time) and between-subjects effects (tests of main effects and interactions). Bonferroni corrected pair-wise comparisons were used as the post-hoc tests. A p<0.05 was considered significant.

A further assay has as its system Long-Evans rats. Put plainly: reversal of a visual discrimination (operant, Phase II reversal training). In kind it is in vivo, rat. As for the experimental part: Forty adult male Long-Evans rats (Charles River Laboratories, Wilmington, Mass.) approximately 250 g at the start of training were used as subjects in this study. Each shipment of rats went through five-day isolation prior to introduction to the general population. Rats were allowed a minimum of one additional week acclimation before operant training began.
Test compound was dissolved in sterile 0.9% saline at 3.0, 10.0, and 30.0 mg/mL, D-amphetamine, the reference compound, was also dissolved in 0.9% sterile saline at 1.0 mg/mL of the amphetamine salt.
After operant training began, rats were housed individually. Access to food was restricted to 12-20 grams per day to maintain animals at 85-90% free feeding body weight (relative to non-restricted rats). Rats were never deprived of water and continued gain weight while in the study.
After animals reached the training criteria on Phase I of the study, they were designated to one of the treatment groups; groups were matched for performance (days to criterion per in Phase I. The study was a mixed design (dose levels×repeated training sessions). The five dose levels were 1, 3, and 10 mg/kg test compound, 0.9 percent saline (vehicle) and 1.0 mg/kg d-amphetamine sulfate (reference compound) all delivered intraperitoneal (IP) at 1.0 mL/kg.
Animals were trained in a set of 10 operant testing chambers (Med Associates) containing two retractable response levers on the front wall. There were two stimulus lights in the chamber, one situated over each lever. The food magazine is located between the two response levers on the front wall and food delivery is signaled with a magazine light. Retrieval of the food pellet is detected by a photosensor within the food magazine. Dim illumination of the chamber is provided by a houselight over the center of the front wall.
Initially animals were shaped to press a lever for food. During this phase, both levers were extended into the chamber and the animal was rewarded with a 45 mg pellet for pressing a lever. The use of a side bias is prevented by retracting a lever once it exceeds five presses beyond the number of presses on the opposite lever. After […] consecutive days with 100 lever presses subjects were moved to Phase I of the study. In this phase, animals had to learn to press the lever beneath the illuminated signal light. On each trial, one of the signal lights (randomly chosen) was illuminated for 1.0 sec prior to presentation of the levers (30.0 sec limited hold). […] After either a correct or incorrect press, or an omission, the levers were retracted for the duration of the variable inter-trial-interval (ITT; 5 s+/−2 s). After stable responding (two consecutive days better than 80% correct) was established in this phase, animals began training in the drug administration portion of the experiment (Phase II).
In Phase II, animals were divided into five groups matched on percent accuracy and number of trials to criterion. Animals in each group were dosed with one of three doses of test compound ([…], IP), amphetamine (1.0 mg/kg, IP), or with the vehicle (saline) one hour prior to behavioral training. In Phase II the discrimination was reversed from that of Phase I such that animals were now rewarded for pressing the lever distal to the cue light. Animals were dosed daily approximately 60 min prior to training. Training continued until ad animals achieved two consecutive days above 80% correct on the new discrimination.
Data were analyzed using SPSS 12.0 for Windows (SSPS Inc., Chicago, Ill.). A mixed between groups, repeated measures ANOVA was conducted cm response accuracy data. A simple one-way ANOVA was conducted on the trials to criteria data from Phase II.

Assay [2] concerns the target T1, human dopamine transporter (Homo sapiens, UniProt Q01959).
T1 construct: expressed in transfected cells; host or cells: HEK293
Put plainly: inhibition of [125I]RTI-55 binding to hDAT in HEK293 cell membranes. The conditions noted are these: HEK-hDAT cells.

The subject of assay [3] is extracellular monoaminergic transmitter levels. Put plainly: in vivo brain microdialysis in prefrontal cortical and striatal brain areas of freely-moving rats. Also noted: species or system rat. As for the experimental part: Brain dialysates were collected from male Sprague-Dawey rats, which had been chronically implanted with cortical and striatal microdialysis guide cannulae and probes. The effects of different doses of test compound (10 and 30 mg/kg, administered subcutaneously) or vehicle (saline, 0.9% NaCl) were evaluated in three 50 baseline samples and eight consecutive 50 minute post-administration samples. The levels of dopamine, norepinephrine and serotonin for the two different brain areas were analyzed using HPLC/PCD analysis to determine any effects of the compound.
In FIGS. 4 and 5, results are expressed as the average percentage change compared to the individual's average baseline value. The arrow indicates the time of administration of test compound. The average value (and corresponding S.E.M.) are shown for each 50 minute sample period of n=12 rats for each group (NB: individual data points may be based on fewer samples owing to incidental loss of dialysate samples).

Assay [4] concerns the target T2, human serotonin transporter (Homo sapiens, UniProt P31645).
T2 construct: expressed in transfected cells; host or cells: HEK293
Kind of assay: inhibition of [125I]RTI-55 binding to hSERT in HEK293 cell membranes. The conditions noted are these: HEK-hSERT cells.

For assay [5], the target named is T3, human norepinephrine transporter (Homo sapiens, UniProt P23975).
T3 construct: expressed in transfected cells; host or cells: HEK293
T3 sequence (P23975 whole entry): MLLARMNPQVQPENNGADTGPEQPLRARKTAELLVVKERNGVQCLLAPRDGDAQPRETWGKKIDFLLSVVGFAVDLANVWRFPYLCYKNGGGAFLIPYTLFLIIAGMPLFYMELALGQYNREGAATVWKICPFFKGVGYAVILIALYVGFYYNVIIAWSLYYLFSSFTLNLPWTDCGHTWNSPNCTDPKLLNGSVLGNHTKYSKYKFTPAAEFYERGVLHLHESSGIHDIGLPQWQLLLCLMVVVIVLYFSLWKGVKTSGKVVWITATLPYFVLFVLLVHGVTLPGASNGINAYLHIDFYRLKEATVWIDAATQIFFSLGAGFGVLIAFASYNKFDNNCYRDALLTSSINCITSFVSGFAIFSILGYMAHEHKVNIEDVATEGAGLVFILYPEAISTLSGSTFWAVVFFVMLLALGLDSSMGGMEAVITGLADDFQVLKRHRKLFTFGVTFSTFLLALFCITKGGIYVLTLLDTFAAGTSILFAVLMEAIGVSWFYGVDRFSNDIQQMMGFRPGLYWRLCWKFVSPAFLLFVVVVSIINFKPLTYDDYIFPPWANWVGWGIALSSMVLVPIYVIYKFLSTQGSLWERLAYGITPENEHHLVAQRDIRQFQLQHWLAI
The class given is binding. To be noted: HEK-hNET cells.

The mark [6] stands for this setting: 1.0 mg/kg IP daily (d-amphetamine sulfate), vs vehicle.

T2 sequence (P31645 whole entry): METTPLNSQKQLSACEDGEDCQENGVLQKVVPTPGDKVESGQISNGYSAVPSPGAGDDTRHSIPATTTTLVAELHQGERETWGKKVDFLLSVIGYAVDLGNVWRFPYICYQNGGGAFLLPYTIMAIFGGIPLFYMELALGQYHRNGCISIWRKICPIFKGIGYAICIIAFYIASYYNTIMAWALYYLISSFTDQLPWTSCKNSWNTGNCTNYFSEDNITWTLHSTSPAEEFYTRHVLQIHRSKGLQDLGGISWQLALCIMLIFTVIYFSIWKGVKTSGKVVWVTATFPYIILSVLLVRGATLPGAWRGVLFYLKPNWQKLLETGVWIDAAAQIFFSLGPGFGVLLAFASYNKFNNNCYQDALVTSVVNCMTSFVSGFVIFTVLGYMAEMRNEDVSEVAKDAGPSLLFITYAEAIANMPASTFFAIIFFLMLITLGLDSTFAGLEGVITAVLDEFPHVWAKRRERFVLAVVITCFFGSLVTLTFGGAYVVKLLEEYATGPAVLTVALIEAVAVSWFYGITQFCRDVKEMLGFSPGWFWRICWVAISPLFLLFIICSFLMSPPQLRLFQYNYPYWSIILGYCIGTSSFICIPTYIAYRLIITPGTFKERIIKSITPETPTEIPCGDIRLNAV
T1 sequence (Q01959 whole entry): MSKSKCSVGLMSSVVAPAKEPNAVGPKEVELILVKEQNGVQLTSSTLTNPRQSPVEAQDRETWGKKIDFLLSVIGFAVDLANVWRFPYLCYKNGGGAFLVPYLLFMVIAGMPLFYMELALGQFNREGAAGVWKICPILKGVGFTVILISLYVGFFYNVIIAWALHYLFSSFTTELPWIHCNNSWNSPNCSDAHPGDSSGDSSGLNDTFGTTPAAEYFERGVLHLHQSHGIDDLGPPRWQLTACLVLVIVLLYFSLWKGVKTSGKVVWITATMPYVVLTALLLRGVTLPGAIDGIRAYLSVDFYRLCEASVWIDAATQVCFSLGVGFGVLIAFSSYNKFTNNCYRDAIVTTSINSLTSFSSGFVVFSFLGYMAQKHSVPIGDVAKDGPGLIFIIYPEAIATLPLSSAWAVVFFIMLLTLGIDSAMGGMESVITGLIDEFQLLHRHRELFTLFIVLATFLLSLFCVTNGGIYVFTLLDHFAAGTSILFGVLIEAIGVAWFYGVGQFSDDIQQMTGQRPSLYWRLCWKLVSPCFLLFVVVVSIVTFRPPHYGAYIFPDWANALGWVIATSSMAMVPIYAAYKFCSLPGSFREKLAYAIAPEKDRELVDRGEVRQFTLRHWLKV

For `C[C@H](N)Cc1ccccc1` [amphetamine, d-amphetamine sulfate, reference compound], the “locomotor, rearing and stereotypical activities” value in the assay on wild-type mice is “increased locomotor, rearing and stereotypical activities”; in assay [1] (2 mg/kg SC, relative to vehicle controls) it was “decreased them in KO animals”. For the same compound, in the assay on Long-Evans rats (setting [6]), the “number of sessions (trials) required to reach criteria in Phase II” value was “needed fewer trials to reach criterion levels of performance”. The “percent accuracy during Phase II reversal training” value in the assay on Long-Evans rats (setting [6]) is recorded as “better accuracy scores”.
Turning to `NC(=O)OC[C@H](N)Cc1ccccc1` [Test Compound, O-carbamoyl-(D)-phenylalaninol], the figures for the Hill coefficient in assay [2], in assay [4] and in assay [5] were −0.77 ± 0.12, −2.28 ± 0.05 and −1.45 ± 0.34, respectively. Moreover, in assay [3] (10 mg/kg s.c., striatum and prefrontal cortex), the “extracellular neurotransmitter levels (dopamine, norepinephrine, serotonin)” value is given as “no consistent effect”. Besides, the “extracellular dopamine concentrations in the striatum” value in assay [3] (30 mg/kg s.c.) is “increases”. For the same compound, in assay [3] (30 mg/kg s.c.), the “extracellular norepinephrine concentrations in the prefrontal cortex” value is “increases”. The “other transmitters investigated (extracellular levels)” value in assay [3] (30 mg/kg s.c.) is given as “without having any significant affect”. Besides, the “locomotor, rearing and stereotypical activities” value was “suppressed activities more efficiently than amphetamine” in assay [1] (100 mg/kg SC, compared with 2 mg/kg amphetamine) and “selectively reduced activity of the KO mice in a dose-dependent manner; also recorded: reduced activities in a dose-dependent fashion” in assay [1] (10, 30, 100 mg/kg SC single injection, 90 min post-injection). Besides, the “percent accuracy during Phase II reversal training” value in the assay on Long-Evans rats (3.0 mg/kg IP daily, one hour prior to training, vs vehicle) was “better accuracy scores”; in the assay with Long-Evans rats (10.0 mg/kg IP daily, one hour prior to training) it was “lower than the 3.0, and 30.0 dose of test compound”; in the assay with Long-Evans rats (30.0 mg/kg IP daily, one hour prior to training, vs vehicle), “better accuracy scores”. Also, the “number of sessions (trials) required to reach criteria in Phase II” value with Long-Evans rats (3.0 mg/kg IP daily, vs vehicle) is “needed fewer trials to reach criterion levels of performance”; in the assay with Long-Evans rats (10.0 mg/kg IP daily, vs vehicle), “did not differ from the vehicle group”; in the assay with Long-Evans rats (30.0 mg/kg IP daily, vs vehicle), “needed fewer trials to reach criterion levels of performance”.

For the origin of these results see US11524935B2, “Methods for treating attention-deficit/hyperactivity disorder” (priority 2009, dated 2022).
